Measurements as given in paper PMC3665795, “Crystal Structure of a Novel N-Substituted L-Amino Acid Dioxygenase from Burkholderia ambifaria AMMD” (PLoS ONE, 2013).

Tests used:
SadA = target: T1, SadA (Burkholderia ambifaria, UniProt Q0B2N4); assay: X-ray crystal structure, […] Å; type: binding; details: Zn(II) in place of Fe(II); cocrystallized with 10 mM α-KG; 0.1 M CHES pH 9.5, 30% PEG 3,000, 293 K; active site, chain A, bidentate to the metal
T1 construct: gene Bamb_6045; dimer
T1 sequence (Q0B2N4 1-273): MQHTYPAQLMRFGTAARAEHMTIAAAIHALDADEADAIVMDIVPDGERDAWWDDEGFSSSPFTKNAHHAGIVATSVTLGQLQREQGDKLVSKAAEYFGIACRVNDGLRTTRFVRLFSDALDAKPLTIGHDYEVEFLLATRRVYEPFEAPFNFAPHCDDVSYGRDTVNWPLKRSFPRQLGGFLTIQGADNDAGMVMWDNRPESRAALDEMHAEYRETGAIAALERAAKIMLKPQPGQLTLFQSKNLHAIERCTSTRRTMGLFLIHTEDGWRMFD

[1] = target: SadA, N-substituted L-amino acid dioxygenase from Burkholderia ambifaria AMMD (Burkholderia ambifaria AMMD); assay: SEC; Superdex 200 size-exclusion chromatography; calibrated with ovalbumin (43 kDa) and conalbumin (75 kDa)

| Molecule | X-ray crystal structure, 1.98 Å (SadA) | stoichiometry N [1] |
| --- | --- | --- |
| O=C(O)CCC(=O)C(=O)O [α-KG] | only one α-KG molecule is clearly observed in chain A of the SadA.Zn(II).α-KG structure |  |
| SadA, N-substituted L-amino acid dioxygenase from Burkholderia ambifaria AMMD (enzyme) |  | 2 |
